The values below come from patent US12414978B2, “Tyrosine inhibitors with immunosuppressive activity in human neonatal keratinocyte progenitors” (ESCAPE THERAPEUTICS, INC., priority 2019, dated 2025).

One data set relates to epidermal progenitors. Description: Trypan blue cell viability after 7 days, epidermal progenitors. Type of data set: cell-based, human. The conditions noted are these: relative to control (untreated cells). How it is done: (§1) The effect of each of the decapeptides upon cell viability was also tested. In particular, cells were incubated with the decapeptide at various concentrations and then counted for viability relative to the control (untreated cells) using trypan blue. Cytotoxicity was measured according to the following formula: [1−(# of cells in control−# of live cells in test sample)/# of cells in control]×100 percent.

Data set [1] has as its system fibroblasts. In words: MTT cell proliferation, fibroblasts. Type of data set: cell-based, human. How it is done:
(§2) Proliferation rates for three human cell lines (epidermal progenitors, melanoblasts, and fibroblasts) were determined using a TACS® MTT Cell Proliferation Kit. Cells were seeded at 2.5×10^4 per well in 96-well plates in a humidified atmosphere with 5 percent CO2 at 37 degrees Celsius. Twenty-four hours later, the decapeptides were added to the corresponding wells at varying concentrations and incubated for 72 hours. The remainder of the procedure was performed following the manufacturer's protocol.

Data set [2] deals with melanoblasts. In words: MTT cell proliferation, melanoblasts. Type of data set: cell-based, human. How it is done: as §2
Data set [3] relates to human epidermal progenitors. Description: MTT cell proliferation, epidermal progenitors. The format is cell-based. How it is done: Proliferation rates were determined using a TACS® MTT Cell Proliferation Kit (R&D systems, Minneapolis, MN). Cells were seeded at 2.5×10^4 per well in 96-well plates in a humidified atmosphere with 5 percent CO2 at 37 degrees Celsius. Twenty-four hours later, decapeptide-12 or oxyresveratrol were added to the corresponding wells at varying concentrations (0, 3, 10, 30, 100, 300, and 1000 micromolar), and cultures were then incubated for 72 hours. The remainder of the procedure was performed following the manufacturer's protocol.
as §2

Data set [4] relates to melanoblasts. Description: Trypan blue cell viability after 7 days, melanoblasts. Type of data set: cell-based, human. The note with it: relative to control (untreated cells). How it is done:
as §1

Data set [5] has as its system fibroblasts. Description: Trypan blue cell viability after 7 days, fibroblasts. The format is cell-based, human. The conditions noted are these: 50 μM, relative to control (untreated cells). How it is done: as §1
Data set [6] has as its system IL-2 activated human NK cell cytotoxic killing of human K562 cells. Description: NK cytotoxic killing of K562 cells (CytoTox96). Type of data set: cell-based. How it is done:
(§3) Cryopreserved human PBMCs were purchased from Astarte Biologics (Redmond, Washington, USA), activated with phytohemagglutinin (PHA), and proliferation assessed. Interleukin (IL)-2 activated human NK cell cytotoxic killing of human K562 cells was assessed using a CytoTox96 non-radioactive cytotoxicity assay kit (Promega). Protease inhibitor was added to the media to prevent degradation of decapeptide-12.
(§4) Three independent trials were performed for each experiment. Microsoft Excel (Seattle, Washington) was used to calculate means and standard errors and statistical significance was determined using unpaired analysis of variance or two-tailed student T-test. P values <0.05 were taken to be statistically significant.
The impact of decapeptide-12 on IL-2 primed NK-mediated cytotoxic killing of K562 cells, was also assessed.

The test system of data set [7] is PHA-stimulated PBMC. Description: PHA-stimulated PBMC proliferation. Type of data set: cell-based, human. The conditions noted are these: PHA 72 hours. How it is done:
as §3, §4
The effects of decapeptide-12 and oxyresveratrol on PBMC proliferation rates after exposure to PHA for 72 hours, were explored.

In data set [8] the test system is PHA-stimulated PBMC. The conditions noted are these: 0.1 millimolar; cited from earlier work.

Square brackets hold non-standard residues; d marks the D form. Ends that are not written are not given here. Peptide text beside a SMILES is read from it. * marks the point of attachment. Palmitoyl = CCCCCCCCCCCCCCCC(=O)*

For the compound `CCCCCCCCCCCCCCCC(=O)N[C@@H](Cc1ccc(O)cc1)C(=O)N[C@@H](CCCNC(=N)N)C(=O)N[C@@H](CO)C(=O)N[C@@H](CCCNC(=N)N)C(=O)N[C@@H](CCCCN)C(=O)N[C@H](Cc1ccc(O)cc1)C(=O)N[C@@H](CO)C(=O)N[C@@H](CO)C(=O)N[C@@H](Cc1c[nH]c2ccccc12)C(=O)N[C@@H](Cc1ccc(O)cc1)C(N)=O` [P4B, Palmitoyl-YRSRK[*Y]SSWY-amide] (Palmitoyl-YRSRK[dY]SSWY-NH2), the “epidermal progenitor viability after 7 days” value (“epidermal progenitor viability” below) in the data set on epidermal progenitors (10 μM) is given as 99 ± 1%; with epidermal progenitors (50 μM), 98 ± 1%; in the data set on epidermal progenitors (100 μM), 97 ± 1%. For the same compound, the “fibroblast proliferation rate after 72 hours” value (from here on “fibroblast proliferation rate”) with fibroblasts [1] (3 μM) is recorded as 100%; in the data set on fibroblasts [1] (10 μM) it was 99 ± 1%; in the data set with fibroblasts [1] (30 μM) it was 99 ± 1%; in the data set with fibroblasts [1] (50 μM), 99 ± 1%; with fibroblasts [1] (100 μM) it was 98 ± 2%; with fibroblasts [1] (300 μM), 97 ± 2%. Besides, the “fibroblast proliferation rate” value in the data set on fibroblasts [1] (500 μM) and with fibroblasts [1] (1000 μM) was 96 ± 2% each time. In addition, the “melanoblast proliferation rate after 72 hours” value (“melanoblast proliferation rate” below) with melanoblasts [2] (3 μM) is 100%; in the data set with melanoblasts [2] (10 μM) it was 100%; in the data set on melanoblasts [2] (30 μM) it was 99 ± 1%; in the data set with melanoblasts [2] (50 μM), 98 ± 1%; in the data set on melanoblasts [2] (100 μM), 97 ± 2%; in the data set with melanoblasts [2] (300 μM) it was 96 ± 2%. Also, the “melanoblast proliferation rate” value came out at 95 ± 2% in the data set with melanoblasts [2] (500 μM) and 94 ± 2% with melanoblasts [2] (1000 μM). The “epidermal progenitor proliferation rate after 72 hours” value is on record as 99 ± 1% in data set [3] (3 μM); 99 ± 1% in [3] (10 μM); 98 ± 1% in data set [3] (30 μM); 98 ± 1% in data set [3] (50 μM); 97 ± 1% in data set [3] (100 μM); 97 ± 1% in data set [3] (300 μM). The “epidermal progenitor proliferation rate after 72 hours” value in data set [3] (500 μM) was 95 ± 2%; in data set [3] (1000 μM) it was 94 ± 2%.

Turning to YRSRKYSSWY [P4, YRSRKYSSWY], the entries for the “melanoblast viability after 7 days” value in the data set with melanoblasts [4] (10 μM), in the data set on melanoblasts [4] (50 μM) and with melanoblasts [4] (1000 μM) were 99 ± 1%, 98 ± 1% and 94 ± 2%, respectively. In addition, in the data set with epidermal progenitors (10 μM), the “epidermal progenitor viability” value is 99 ± 1%.

With `CCCCCCCCCCCCCCCC(=O)N[C@@H](Cc1ccc(O)cc1)C(=O)N[C@@H](CCCNC(=N)N)C(=O)N[C@@H](CO)C(=O)N[C@@H](CCCNC(=N)N)C(=O)N[C@@H](CCCCN)C(=O)N[C@@H](Cc1ccc(O)cc1)C(=O)N[C@@H](CO)C(=O)N[C@@H](CO)C(=O)N[C@@H](Cc1c[nH]c2ccccc12)C(=O)N[C@@H](Cc1ccc(O)cc1)C(N)=O` [P4A, Palmitoyl-YRSRKYSSWY-amide] (Palmitoyl-YRSRKYSSWY-NH2), the “melanoblast viability after 7 days” value is 99 ± 1% with melanoblasts [4] (10 μM), 98 ± 1% with melanoblasts [4] (50 μM) and 97 ± 2% with melanoblasts [4] (100 μM). For the same compound, the “epidermal progenitor viability” value in the data set on epidermal progenitors (10 μM) amounted to 99 ± 1%. Moreover, the “fibroblast proliferation rate” value in the data set on fibroblasts [1] (3 μM) came to 100%; in the data set with fibroblasts [1] (10 μM), 99 ± 1%; with fibroblasts [1] (30 μM) it was 98 ± 1%; with fibroblasts [1] (50 μM) it was 98 ± 1%; in the data set with fibroblasts [1] (100 μM), 97 ± 2%; in the data set on fibroblasts [1] (300 μM), 97 ± 2%. For the same compound, the figures for the “fibroblast proliferation rate” value in the data set with fibroblasts [1] (500 μM) and in the data set on fibroblasts [1] (1000 μM) were 96 ± 2% and 95 ± 2%, respectively. The “melanoblast proliferation rate” value with melanoblasts [2] (3 μM) is reported as 100%; in the data set with melanoblasts [2] (10 μM) it was 100%; in the data set with melanoblasts [2] (30 μM), 99 ± 1%; in the data set with melanoblasts [2] (50 μM), 98 ± 1%; in the data set on melanoblasts [2] (100 μM), 97 ± 2%; in the data set on melanoblasts [2] (300 μM), 97 ± 2%. The “melanoblast proliferation rate” value with melanoblasts [2] (500 μM) worked out at 96 ± 2%; with melanoblasts [2] (1000 μM), 95 ± 2%. The “fibroblast viability after 7 days” value in the data set on fibroblasts [5] came out at 98 ± 1%. The “epidermal progenitor proliferation rate after 72 hours” value in [3] (3 μM) was determined as 99 ± 1%; in [3] (10 μM), 99 ± 1%; in data set [3] (30 μM) it was 98 ± 1%; in data set [3] (50 μM) it was 97 ± 1%; in data set [3] (100 μM), 97 ± 2%; in data set [3] (300 μM), 96 ± 2%. For the same compound, the “epidermal progenitor proliferation rate after 72 hours” value in [3] (500 μM) is 96 ± 2%; in data set [3] (1000 μM) it was 94 ± 2%.

Turning to `Oc1cc(O)cc(/C=C/c2ccc(O)cc2O)c1` [oxyresveratrol], the “reduction of NK killing of K562 cells” value in data set [6] (0.1 millimolar, E:T ratio 10:1) was 88.7±1.8%; in data set [6] (0.1 millimolar, E:T ratio 30:1), 72.8±1.9%; in data set [6] (0.3 millimolar, E:T ratio 10:1), 86.1±0.9%; in data set [6] (0.3 millimolar, E:T ratio 30:1), 64.0±3.4%. The “reduction of PHA-stimulated PBMC proliferation” value in the data set with PHA-stimulated PBMC [7] (0.1 millimolar) is reported as 35.3±1.8%; with PHA-stimulated PBMC [7] (0.3 millimolar), “progressively less inhibition”; in the data set on PHA-stimulated PBMC [7] (1 millimolar) it was “progressively less inhibition”; with PHA-stimulated PBMC [7] (3 millimolar), 14.7±3.4%. The compound further showed a reduction in proliferation in [3] (1 millimolar (1000 micromolar), 72 hours, epidermal progenitors) of 12±2%.

Take “Ac-YRSRKYSSWY-NH2 [P4C, Acetyl-YRSRKYSSWY-amide]”: the results for the “melanoblast viability after 7 days” value in the data set on melanoblasts [4] (10 μM), with melanoblasts [4] (100 μM) and in the data set on melanoblasts [4] (300 μM) were 99 ± 1%, 97 ± 2% and 96 ± 3%, respectively. Besides, the “epidermal progenitor viability” value is listed as 99 ± 1% in the data set with epidermal progenitors (10 μM), 98 ± 1% with epidermal progenitors (30 μM) and 94 ± 3% in the data set with epidermal progenitors (1000 μM). Moreover, the “fibroblast proliferation rate” value is 100% with fibroblasts [1] (3 μM); 99 ± 1% with fibroblasts [1] (10 μM); 99 ± 1% in the data set with fibroblasts [1] (30 μM); 99 ± 1% in the data set on fibroblasts [1] (50 μM); 98 ± 2% in the data set on fibroblasts [1] (100 μM); 97 ± 2% in the data set with fibroblasts [1] (300 μM). Also, the “fibroblast proliferation rate” value in the data set with fibroblasts [1] (500 μM) and in the data set on fibroblasts [1] (1000 μM) was 96 ± 2% in each case. Also, the “melanoblast proliferation rate” value in the data set on melanoblasts [2] (3 μM) was 100%; in the data set with melanoblasts [2] (10 μM), 100%; in the data set with melanoblasts [2] (30 μM), 99 ± 1%; with melanoblasts [2] (50 μM) it was 98 ± 1%; in the data set on melanoblasts [2] (100 μM), 97 ± 2%; in the data set on melanoblasts [2] (300 μM), 96 ± 3%. Further, the “melanoblast proliferation rate” value with melanoblasts [2] (500 μM) and in the data set with melanoblasts [2] (1000 μM) was 95 ± 2% in each case. The “epidermal progenitor proliferation rate after 72 hours” value in data set [3] (3 μM) is on record as 99 ± 1%; in data set [3] (10 μM) it was 99 ± 1%; in [3] (30 μM), 98 ± 1%; in data set [3] (50 μM), 98 ± 1%; in data set [3] (100 μM), 97 ± 1%; in [3] (300 μM), 97 ± 1%. Also, the “epidermal progenitor proliferation rate after 72 hours” value in data set [3] (500 μM) and in data set [3] (1000 μM) was 96 ± 2% throughout.

In the case of `Oc1ccc(C=Cc2cc(O)cc(O)c2)cc1` [resveratrol], the “inhibition of PHA-induced proliferation” value in the data set with PHA-stimulated PBMC [8] is listed as “inhibits”.
